Residue numbers refer to the chain shown, from its start. “Also recorded” adds a separate entry of the source. Read-outs that look alike come from different tables or passages of the source.
What was measured:
[1] = target: T1, OCT1*6 (Cys88Arg/Met420del) (Homo sapiens, UniProt O15245, C88R/DEL420-420/L160F); test: Ranitidine uptake in HEK293 cells overexpressing OCT1*6; type: in vitro ADME; settings: 1 μM and 10 μM ranitidine, 2 min
T1 construct: expressed in transfected cells; host or cells: HEK293 T-REx (Flp-In)
T1 sequence (O15245 with tags, fused parts or gaps C88R/L160F/DEL420-420): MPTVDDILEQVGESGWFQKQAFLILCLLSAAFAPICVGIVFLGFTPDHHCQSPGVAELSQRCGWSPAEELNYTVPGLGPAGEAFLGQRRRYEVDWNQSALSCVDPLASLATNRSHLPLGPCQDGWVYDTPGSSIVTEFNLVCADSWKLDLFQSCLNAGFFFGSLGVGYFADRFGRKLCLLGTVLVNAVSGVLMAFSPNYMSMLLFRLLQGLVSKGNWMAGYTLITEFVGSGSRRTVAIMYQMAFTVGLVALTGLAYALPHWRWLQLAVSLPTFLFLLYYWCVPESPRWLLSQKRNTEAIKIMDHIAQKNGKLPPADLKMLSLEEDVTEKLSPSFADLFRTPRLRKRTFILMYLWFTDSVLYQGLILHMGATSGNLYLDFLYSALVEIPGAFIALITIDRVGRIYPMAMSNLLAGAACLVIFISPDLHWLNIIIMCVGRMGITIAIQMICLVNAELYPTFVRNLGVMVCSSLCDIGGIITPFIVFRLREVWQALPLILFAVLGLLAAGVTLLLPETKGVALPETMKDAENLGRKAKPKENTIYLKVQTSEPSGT
Excerpt: (§1) HEK293 or CHO cells overexpressing the human OCT1 alleles *1A (characterized by the amino acid substitution Met408Val), *1B, *1C (Phe160Leu), *1D (Pro341Leu/Met408Val), *2 (Met420del), *3 (Arg61Cys), *4 (Gly401Ser), *5 (Gly465Arg/Met420del), *6 (Cys88Arg/Met420del), *7 (Ser14Phe), *8A (Arg488Met), *8B (Arg488Met/Met408Val), *9 (Pro117Leu), *10 (Ser189Leu), *11 (Ile449Thr), *12 (Ser29Leu), or *13 (Thr245Met), the human OCT2 reference and variant alleles (Ala270Ser), human OCT3, and the control cells (transfected with the empty pcDNA5 vector) were generated by targeted chromosomal integration using the Flp-In™ System (Life Technologies, Darmstadt, Germany).
(§2) Six hundred thousand HEK293 or CHO cells were plated per well in 12-well plates (pre-coated with poly-D-lysine) and were grown for 48 hours to reach confluence. Cells were kept at 37°C and 5% CO2 in DMEM (HEK293) or RPMI (CHO), supplemented with 10% FCS, 100 U/ml penicillin, and 100 μg/ml streptomycin. Uptake experiments were performed at pH 7.4 using HBSS supplemented with 10 mM HEPES buffer (herein referred to as HBSS+). […]
(§3) For all transport measurements, the intracellular amount of substrate was normalized to the total amount of protein of the sample as measured using the bicinchoninic acid assay [49].
(§4) For quantification of intracellular substrates, the cell debris were removed by centrifugation at 17,000 x g for 10 min. […]

OCT1*1B [2] = target: T2, OCT1*1B (Homo sapiens, UniProt O15245, L160F); settings: for Vmax (±SEM): OCT1*1B reference allele, 10-600 μM ranitidine, control-cell uptake subtracted
T2 sequence (O15245 1-554 L160F): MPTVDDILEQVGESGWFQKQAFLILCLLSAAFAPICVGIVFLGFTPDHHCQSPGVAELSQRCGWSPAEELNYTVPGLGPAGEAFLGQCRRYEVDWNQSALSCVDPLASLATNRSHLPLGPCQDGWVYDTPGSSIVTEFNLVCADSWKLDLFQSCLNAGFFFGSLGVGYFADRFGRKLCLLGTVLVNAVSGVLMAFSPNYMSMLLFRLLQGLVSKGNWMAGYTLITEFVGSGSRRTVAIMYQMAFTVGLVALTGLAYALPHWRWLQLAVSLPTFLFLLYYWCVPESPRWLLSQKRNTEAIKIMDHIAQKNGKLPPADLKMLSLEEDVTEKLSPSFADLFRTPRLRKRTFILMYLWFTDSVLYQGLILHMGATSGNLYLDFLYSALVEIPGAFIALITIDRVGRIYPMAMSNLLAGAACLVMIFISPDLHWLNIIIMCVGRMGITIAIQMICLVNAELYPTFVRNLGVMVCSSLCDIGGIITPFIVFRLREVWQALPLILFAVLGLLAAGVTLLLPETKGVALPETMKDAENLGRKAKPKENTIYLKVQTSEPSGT
Excerpt: as §1
(§5) Six hundred thousand HEK293 or CHO cells were plated per well in 12-well plates (pre-coated with poly-D-lysine) and were grown for 48 hours to reach confluence. Cells were kept at 37°C and 5% CO2 in DMEM (HEK293) or RPMI (CHO), supplemented with 10% FCS, 100 U/ml penicillin, and 100 μg/ml streptomycin. Uptake experiments were performed at pH 7.4 using HBSS supplemented with 10 mM HEPES buffer (herein referred to as HBSS+). Cells were washed once with 1 ml pre-warmed HBSS+ buffer (37°C). […] Cells were washed twice with 2 ml ice-cold HBSS+ and lysed in 500 μl lysis buffer.
as §3
(§6) For quantification of intracellular substrates, the cell debris were removed by centrifugation at 17,000 x g for 10 min. Four-hundred μl of the supernatant was evaporated to dryness under nitrogen flow at 40°C. The residue was reconstituted in 200 μl 0.1% formic acid and 10 μl were injected into the LC-MS/MS. For the LC-MS/MS analysis an API 4000™ system tandem mass spectrometer (AB SCIEX, Darmstadt, Germany) was used. Samples were separated using a Brownlee SPP RP-Amide Column (4.6x100 mm, 2.7 μm; PerkinElmer), with a SecurityGuard C18, 4x2 mm pre-column (Phenomenex, Aschaffenburg, Germany).
(§7) Nonlinear regression to the Michaelis-Menten equation was performed to determine Km and vmax using GraphPad Prism version 6 (GraphPad Software Inc., La Jolla, CA, USA). Nonlinear regression to the Hill equation v = vmin+(vmax-vmin)/1+([I]/IC50)^-Hillslope was performed to determine IC50 using SigmaPlot version 12.0 (Systat Software, San Jose, California, USA).

OCT1*8 (Arg488Met) = target: T3, OCT1*8 (Arg488Met) (Homo sapiens, UniProt O15245, L160F/R488M); settings: not statistically significant (P = 0.5)
T3 sequence (O15245 1-554 L160F/R488M): T2 sequence (O15245 1-554 L160F) with R488M
Excerpt: as §1, §2, §3, §4

[3] = set-up: method as in ref 5 = [5]; 5 Inc. G. PrZANTAC ® [product monograph]. Canada: GlaxoSmithKline Inc.; 2015 [updated 15.01.2015; cited 2016 21.10.2016].; settings: long-term toxicity tests in animals; cited from earlier work
OCT1*1B [4] = target: T2, OCT1*1B; test: in vitro; settings: HEK293 cells overexpressing OCT1*1B, pH 7.4, Km (± SEM), OCT1*1B reference allele, 10-600 μM ranitidine, control-cell uptake subtracted
Excerpt: as §1, §5, §3, §6, §7

## CNC(=C[N+](=O)[O-])NCCSCc1ccc(CN(C)C)o1 [ranitidine, Ranitidine]
[1]
  ranitidine transport activity: completely lacked ranitidine uptake; also recorded: complete lack of ranitidine transport activity
OCT1*1B [2]; 1 μM ranitidine, 2 min, HEK293
  ranitidine uptake, OCT1-overexpressing compared to control cells: 7.8 fold
OCT1*1B [2]; 1 μM ranitidine, after 1 min of incubation, HEK293
  intracellular concentration of ranitidine, OCT1-overexpressing cells compared to control cells: 8.5 fold
OCT1*1B [2]; HEK293, 2 min
  Vmax (±SEM): 1125 ± 86.1 pmol x min^-1 x mg protein^-1
OCT1*1B [2]; HEK293, 2 min, listed as Ranitidine
  Vmax (±SEM): 1125 pmol x min^-1 x mg protein^-1
OCT1*1B [2]; wild-type OCT1 (abstract)
  vmax: 1125 pmol/min/mg protein
OCT1*8 (Arg488Met)
  increase in vmax compared to the reference allele: 25%
[3]
  plasma concentrations exceeding the human maximal plasma concentration without significant adverse reactions: 50 fold
OCT1*1B [4]
  Km at 2 min: 62.9 µM

Source: paper PMC5728534 (PLoS ONE, 2017)
